The structures appear in SMILES notation.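 Cultured in 96-well plates, cells were exposed to test compound for 48 hours across five concentrations. At the GI50, growth is halved.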 The source made the active and inactive calls. Rule as the data show it: active = GI50 up to about 1.1 µM and inactive = higher. Where only a bound is given, the exact number is not on record here.

Test systems include HOP-92; SK-MEL-5; EKVX; CAKI-1; DU-145; SK-MEL-2; MDA-MB-435; NCI-H226; OVCAR-5; CCRF-CEM; HCT-116; ACHN; NCI/ADR-RES; U-251; NCI-H522; UO-31; RXF 393; HCC 2998; NCI-H460.
Test in all cases: NCI-60 cell line screen, 48 h

Turning to `C[N+](C)(CCNC(=O)c1cccc2cc3ccccc3nc12)Cc1ccc([N+](=O)[O-])s1`, the GI50 in the experiment with HOP-92 was > 25 µM (inactive); in the experiment on SK-MEL-5 it was > 25 µM (inactive); in the experiment on EKVX, > 25 µM (inactive); in the experiment with CAKI-1 it was 14.9 µM (inactive); in the experiment on DU-145, > 25 µM (inactive); in the experiment on SK-MEL-2, > 25 µM (inactive). Also, the GI50 in the experiment with MDA-MB-435, with NCI-H226, in the experiment on OVCAR-5, with CCRF-CEM, with HCT-116 and in the experiment with ACHN was > 25 µM (inactive) in each case. In addition, the GI50 with NCI/ADR-RES, with U-251, in the experiment on NCI-H522, in the experiment on UO-31 and in the experiment with RXF 393 was > 25 µM (inactive) each time.
Consider `COc1cc(C2c3cc4c(cc3OC(NCCO)C2C)OCO4)cc(OC)c1O` (stereo unspecified), for which the GI50 was 86.5 µM (inactive) in the experiment with HOP-92; 4.86 µM (inactive) with SK-MEL-5; 5.81 µM (inactive) in the experiment with HCC 2998; 19.2 µM (inactive) in the experiment with CAKI-1; 9.79 µM (inactive) in the experiment on DU-145; 4.79 µM (inactive) in the experiment with SK-MEL-2. In addition, the GI50 in the experiment on MDA-MB-435 is 2.1 µM (inactive); with NCI-H226 it was 49.3 µM (inactive); with OVCAR-5, 30.7 µM (inactive); with HCT-116, 5.06 µM (inactive); in the experiment on NCI/ADR-RES it was 4.58 µM (inactive); with U-251 it was 6.08 µM (inactive). Also, the results for the GI50 with NCI-H522, in the experiment with UO-31 and in the experiment on RXF 393 were 3.27 µM (inactive), 24.5 µM (inactive) and 20.4 µM (inactive), respectively.
In the case of `CCN(CC)C(=S)SS(=O)(=O)c1ccc(NC(C)=O)cc1`, the GI50 in the experiment with HOP-92 was 19.8 µM (inactive); with SK-MEL-5 it was 0.778 µM (active); in the experiment with EKVX, 44.5 µM (inactive); in the experiment on HCC 2998 it was 31.6 µM (inactive); in the experiment with CAKI-1, 18.8 µM (inactive); in the experiment on DU-145 it was 22.6 µM (inactive). Also, the GI50 with SK-MEL-2 was 41.7 µM (inactive); with MDA-MB-435, 17.1 µM (inactive); in the experiment on NCI-H460 it was 26.2 µM (inactive); with NCI-H226, > 59.7 µM (inactive); in the experiment with OVCAR-5, 24.5 µM (inactive); in the experiment with HCT-116, 16 µM (inactive). For the same compound, the GI50 in the experiment with ACHN is 36.1 µM (inactive); in the experiment with NCI/ADR-RES, 28 µM (inactive); with U-251, 18 µM (inactive); in the experiment on NCI-H522, < 0.0213 µM (active); with UO-31, 19.5 µM (inactive); with RXF 393, 15.2 µM (inactive).
On to `CCN(CC)CCCNc1nc(=O)[nH]c(C)c1C(=O)Nc1cccc2cc3ccccc3cc12`, for which the GI50 with HOP-92 is 62.2 µM (inactive); in the experiment on SK-MEL-5, > 100 µM (inactive); in the experiment on EKVX, > 100 µM (inactive); with HCC 2998, > 100 µM (inactive); with CAKI-1, > 100 µM (inactive); in the experiment on DU-145, > 100 µM (inactive). For the same compound, the GI50 in the experiment on SK-MEL-2, with MDA-MB-435, in the experiment with NCI-H226, in the experiment on OVCAR-5, in the experiment with CCRF-CEM and with HCT-116 was > 100 µM (inactive) throughout. Also, the GI50 in the experiment on ACHN is > 100 µM (inactive); in the experiment on NCI/ADR-RES, > 100 µM (inactive); in the experiment with U-251, > 100 µM (inactive); in the experiment on NCI-H522 it was 85.3 µM (inactive); in the experiment with UO-31, > 100 µM (inactive); with RXF 393, 78.7 µM (inactive).
On to `CC(C)C(N)C(=O)NC(CCC(=O)NCCCCC(N)C(=O)NCCCNc1ccc([N+](=O)[O-])c2[nH]c3ccccc3c(=O)c12)C(N)=O` (stereo unspecified), for which the GI50 was 24.4 µM (inactive) in the experiment with HOP-92; > 100 µM (inactive) in the experiment on SK-MEL-5; > 100 µM (inactive) in the experiment on EKVX; 40.2 µM (inactive) in the experiment on HCC 2998; > 100 µM (inactive) in the experiment on CAKI-1; > 100 µM (inactive) in the experiment with DU-145. Besides, the GI50 in the experiment on SK-MEL-2 is 91.6 µM (inactive); in the experiment with MDA-MB-435 it was 67.9 µM (inactive); in the experiment on NCI-H460, 12.5 µM (inactive); with NCI-H226, 50.9 µM (inactive); with OVCAR-5 it was > 100 µM (inactive); with CCRF-CEM, 34.5 µM (inactive). Further, the GI50 in the experiment with HCT-116 is 21.7 µM (inactive); in the experiment with ACHN, 40.6 µM (inactive); with NCI/ADR-RES, 43 µM (inactive); in the experiment on U-251 it was 26.7 µM (inactive); with UO-31, 24.4 µM (inactive); in the experiment with RXF 393, 11 µM (inactive).
For `COC(=O)c1c2c(cc3c1CC1(Cc4cc5c(c(C)c4C1)CCC5)C3)CCC2` (stereo unspecified), the GI50 in the experiment with HOP-92, in the experiment on SK-MEL-5, in the experiment with EKVX, in the experiment on HCC 2998, in the experiment on CAKI-1 and in the experiment on DU-145 was > 100 µM (inactive) throughout. The GI50 in the experiment on SK-MEL-2, with MDA-MB-435, in the experiment with NCI-H460, in the experiment on OVCAR-5, in the experiment with CCRF-CEM and in the experiment with HCT-116 was > 100 µM (inactive) in each case. In addition, the GI50 is > 100 µM (inactive) with ACHN; > 100 µM (inactive) in the experiment on NCI/ADR-RES; > 100 µM (inactive) with U-251; > 100 µM (inactive) with NCI-H522; > 100 µM (inactive) in the experiment on UO-31; 90.4 µM (inactive) in the experiment with RXF 393.
In the case of `CC1(c2cccc(Cl)c2)CC(c2cccc(Cl)c2)=C(C#N)C(=C(C#N)C#N)N1` (stereo unspecified), the GI50 was 6.19 µM (inactive) in the experiment with HOP-92; 14.6 µM (inactive) in the experiment with SK-MEL-5; 22.1 µM (inactive) with EKVX; 15.8 µM (inactive) in the experiment on HCC 2998; 16.5 µM (inactive) in the experiment on CAKI-1; 15.8 µM (inactive) in the experiment on DU-145. Besides, the GI50 in the experiment on SK-MEL-2 was 21.7 µM (inactive); in the experiment with MDA-MB-435, 17 µM (inactive); in the experiment on NCI-H460 it was 27.6 µM (inactive); with NCI-H226, 18.7 µM (inactive); with OVCAR-5, 24.2 µM (inactive); in the experiment with CCRF-CEM it was 2.92 µM (inactive). The GI50 in the experiment on HCT-116 was 16.6 µM (inactive); in the experiment with ACHN, 17.8 µM (inactive); in the experiment with NCI/ADR-RES, 18.9 µM (inactive); in the experiment on U-251, 16.4 µM (inactive); in the experiment with UO-31, 15.7 µM (inactive); with RXF 393 it was 14.8 µM (inactive).
Regarding `C/C(=N\NS(=O)(=O)c1ccc(C)cc1)P(=O)(O)O`, the GI50 in the experiment on HOP-92, in the experiment on SK-MEL-5, in the experiment on EKVX, in the experiment on CAKI-1, in the experiment with DU-145 and in the experiment with SK-MEL-2 was > 100 µM (inactive) throughout. For the same compound, the GI50 in the experiment with MDA-MB-435, in the experiment with NCI-H460, with NCI-H226, in the experiment with OVCAR-5, in the experiment on HCT-116 and in the experiment on ACHN was > 100 µM (inactive) in each case. Moreover, the GI50 in the experiment with NCI/ADR-RES, in the experiment with U-251, in the experiment on NCI-H522, in the experiment on UO-31 and with RXF 393 was > 100 µM (inactive) throughout.
`CCCCOC(=O)Nc1ccc(S(=O)(=O)Nc2ccccc2Cl)cc1`: the GI50 is 13.7 µM (inactive) in the experiment with HOP-92; 12 µM (inactive) in the experiment on SK-MEL-5; 20.7 µM (inactive) in the experiment on EKVX; 14.1 µM (inactive) in the experiment with HCC 2998; 19.5 µM (inactive) with CAKI-1; 30.3 µM (inactive) with DU-145. For the same compound, the GI50 with SK-MEL-2 is 18.1 µM (inactive); in the experiment on MDA-MB-435, 18.8 µM (inactive); in the experiment with NCI-H460, 18.2 µM (inactive); with OVCAR-5, 25.8 µM (inactive); with CCRF-CEM it was 19.2 µM (inactive); with HCT-116, 22.4 µM (inactive). Further, the GI50 with ACHN was 27.8 µM (inactive); in the experiment on NCI/ADR-RES, 18.2 µM (inactive); in the experiment with U-251 it was 17.5 µM (inactive); in the experiment with NCI-H522, 18.5 µM (inactive); in the experiment with UO-31, 25.6 µM (inactive); in the experiment with RXF 393 it was 21.3 µM (inactive).
As to `NCCSc1nc2ccccc2s1`, the GI50 is 25.5 µM (inactive) in the experiment on HOP-92; 52.7 µM (inactive) in the experiment on SK-MEL-5; 34.4 µM (inactive) with EKVX; 38.5 µM (inactive) in the experiment on CAKI-1; 33.9 µM (inactive) with DU-145; 26.1 µM (inactive) in the experiment with SK-MEL-2. Further, the GI50 was 23 µM (inactive) in the experiment with MDA-MB-435; 36.1 µM (inactive) with NCI-H460; 36.6 µM (inactive) with NCI-H226; 38.3 µM (inactive) in the experiment with OVCAR-5; 26.3 µM (inactive) with CCRF-CEM; 33.7 µM (inactive) with HCT-116. The GI50 was 33.5 µM (inactive) with ACHN; 42.6 µM (inactive) in the experiment on NCI/ADR-RES; 21.7 µM (inactive) in the experiment with U-251; 28.1 µM (inactive) in the experiment with NCI-H522; 43.8 µM (inactive) in the experiment with UO-31; 29.5 µM (inactive) in the experiment with RXF 393.
For the compound `COc1ccc2[nH]cc(CCNC(=O)[C@H](Cc3ccccc3)NC(=O)[C@@H](NCC(F)(F)F)C(C)C)c2c1`, the GI50 with HOP-92 is 12.1 µM (inactive); in the experiment with EKVX, 17.4 µM (inactive); with DU-145, 18.3 µM (inactive); with SK-MEL-2, 19.4 µM (inactive); with MDA-MB-435 it was 19.8 µM (inactive); in the experiment with NCI-H460, 20.1 µM (inactive). Further, the GI50 with NCI-H226 was 21.4 µM (inactive); in the experiment on OVCAR-5, 18.3 µM (inactive); with CCRF-CEM it was 0.809 µM (active); with HCT-116, 16.5 µM (inactive); with ACHN it was 28.2 µM (inactive); in the experiment on NCI/ADR-RES, 19.1 µM (inactive). The GI50 in the experiment on U-251 was 21.4 µM (inactive); in the experiment with NCI-H522 it was 16.7 µM (inactive); with UO-31 it was 22.9 µM (inactive); in the experiment with RXF 393 it was 15.6 µM (inactive).

These data come from ChEMBL document CHEMBL1201862, “PubChem BioAssay data set” (2004).
